The test system of assay [1] is prothrombinase (bovine FXa and FVa) on washed human platelets activated by convulxin and thrombin. Kind of assay: Platelet-dependent prothrombinase assay. In kind it is biochemical. The following applies: 1 μM, washed human platelets with convulxin and thrombin, thrombin Vmax with S-2238, n = 8. The method, then:
Human whole blood was collected from healthy volunteers by venipuncture into 3.2% sodium citrate. Washed platelets were prepared from whole blood collected by venipuncture into 3.8% sodium citrate and acid-citrate-dextrose (ACD). Platelet-rich plasma (PRP) was prepared by centrifugation of whole blood at 200 g for 20 min. Platelets were isolated from the PRP by centrifugation at 1000 g for 10 min with 0.1 μg ml^−1 prostacyclin (PGI2) (Sigma-Aldrich). The resulting pellet was resuspended with modified Tyrode’s buffer (129 mM NaCl, 20 mM HEPES, 12 mM NaHCO3, 2.9 mM KCl, 1.0 mM MgCl2, 0.34 mM Na2HPO4, 5 mM glucose, pH 7.3), ACD, and 0.1 μg ml^−1 PGI2. Platelets were then washed by re-pelleting at 1000 g for 10 min and re-suspending with modified Tyrode’s buffer.
Effects on coagulation factor enzymatic activity were determined using a modification of a previously described prothrombinase assay, [55]. Washed human platelets (8 × 10^5 reaction^−1) were incubated at 37 °C with either a buffer blank or 375 ng ml^−1 convulxin (Centerchem, Norwalk, CT) and 5.0 nM thrombin (Haematologic Technologies) in modified Tyrode’s buffer containing 2.9 mM CaCl2 and 0.05% wt vol^−1 fatty acid-free bovine serum albumin (BSA). After 7 min, 1 μM investigational peptide or protein, or a buffer blank, was added, followed 3 min later by bovine FXa (3 nM) and FVa (6 nM) (Haematologic Technologies). […]

Assay [2] concerns fibrin formation in whole human blood. Nature of the assay: Whole blood microfluidic flow assay. It is filed as cell-based. Conditions: whole human blood over collagen, 10 min, wall shear rate 100 s^-1, 1 μM peptide or annexin V, heparin 15 USP ml^-1, n = 6. An excerpt: Effects on whole blood platelet activation and accumulation, as well as fibrin formation, were examined using a modification of a previously described microfluidic flow assay. A custom polydimethylsiloxane microfluidic flow device containing four channels, each with a height of 100 μm and width of 500 μm, was vacuum mounted to a glass slide patterned with a type I fibrillar collagen strip (Chrono-log). The microfluidic flow device channels were oriented perpendicular to the patterned collagen strip, resulting in a 50 μm patch of collagen across the width of each channel. Whole blood was labeled with a Pacific Blue anti-human CD41 antibody (BioLegend) for 10 min, followed by the addition of 30 μg ml^−1 Alexa Fluor 647 human plasma fibrinogen conjugate (Life Technologies) and either 1 μM NBD labeled investigational peptide, 1 μM annexin V (BioVision), or 15 USP ml^−1 heparin. Immediately before the assay, the whole blood mixture was recalcified to 7.5 mM CaCl2. The whole blood was then pulled through the device channels for 10 min at wall shear rate 100 s^−1 using a PhD Ultra syringe pump (Harvard Apparatus, Holliston, MA). […] Fluorescence intensities and platelet surface area coverages were measured using ImageJ (NIH, Bethesda, MD). […]

The test system of assay [3] is P-selectin positive platelets. Nature of the assay: Flow cytometry of binding to platelets. In kind it is cell-based. Conditions: washed human platelets, 1 μM NBD labeled peptide, 30 min, n = 6. On the procedure: Human whole blood was collected from healthy volunteers by venipuncture into 3.2% sodium citrate. Washed platelets were prepared from whole blood collected by venipuncture into 3.8% sodium citrate and acid-citrate-dextrose (ACD). Platelet-rich plasma (PRP) was prepared by centrifugation of whole blood at 200 g for 20 min. Platelets were isolated from the PRP by centrifugation at 1000 g for 10 min with 0.1 μg ml^−1 prostacyclin (PGI2) (Sigma-Aldrich). The resulting pellet was resuspended with modified Tyrode’s buffer (129 mM NaCl, 20 mM HEPES, 12 mM NaHCO3, 2.9 mM KCl, 1.0 mM MgCl2, 0.34 mM Na2HPO4, 5 mM glucose, pH 7.3), ACD, and 0.1 μg ml^−1 PGI2. Platelets were then washed by re-pelleting at 1000 g for 10 min and re-suspending with modified Tyrode’s buffer. Washed platelets were obtained from the whole blood as described above. The platelets were resuspended in modified Tyrode’s buffer containing 2 mM CaCl2, counted, and diluted to 2 × 10^4 platelets μL^−1. Platelets were stimulated with either 1 IU ml^−1 thrombin (Chrono-log, Havertown, PA), 250 ng ml^−1 convulxin (Centerchem), 1 IU ml^−1 thrombin and 250 ng ml^−1 convulxin, or left unstimulated for 10 min at room temperature. […] The samples were then immediately fixed in 1% paraformaldehyde, diluted, and analyzed on a MoFlo Astrios EQ flow cytometer (Beckman Coulter, Brea, CA) with appropriate color compensation.

As for “H-GGDYDKIGKNDA-NH2 [C2BL3-L, NH2-GGDYDKIGKNDA-CONH2]”, the “reduction in prothrombinase activity” value in assay [1] was determined as 17%.

For heparin, in assay [2], the “fibrin formation on adherent platelets (in words)” value is recorded as “equivalent fibrin formation inhibition to that of the MARCKS ED peptides”.

B1: annexin V: PS binding protein, positive control (protein)
chain: MAQVLRGTVTDFPGFDERADAETLRKAMKGLGTDEESILTLLTSRSNAQRQEISAAFKTLFGRDLLDDLKSELTGKFEKLIVALMKPSRLYDAYELKHALKGAGTNEKVLTEIIASRTPEELRAIKQVYEEEYGSSLEDDVVGDTSGYYQRMLVVLLQANRDPDAGIDEAQVEQDAQALFQAGELKWGTDEEKFITIFGTRSVSHLRKVFDKYMTISGFQIEETIDRETSGNLEQLLLAVVKSIRSIPAYLAETLYYAMKGAGTDDHTLIRVMVSRSEIDLFNIRKEFRKNFATSLYSMIKGDTSGDYKKALLLLCGEDD
With B1, the “fibrin formation on adherent platelets (in words)” value in assay [2] is given as “equivalent fibrin formation inhibition to that of the MARCKS ED peptides”. In assay [3], the “labeling of unstimulated platelets” value is “Neither D-MARCKS ED nor annexin V labeled the unstimulated platelets”.

Values taken from article PMC5487340, “Peptides derived from MARCKS block coagulation complex assembly on phosphatidylserine” (Scientific Reports, 2017).
